Broadly, the IC50 is the concentration at which inhibition is half-maximal.

Counter-ions that a name gives are not always drawn. Like-named read-outs stand apart in the source and are kept apart here.

Series [1] can be described thus: Solubility. It counts as physicochemical.
Series [2] deals with T1, PLA2 from Rat Platelet (Rattus norvegicus, UniProt P14423).
T1 construct: PLA2 released from thrombin-stimulated rat platelets; from tissue; host or cells: thrombin-stimulated rat platelets (released enzyme, purified on MD 7.1 antibody-coupled Sepharose)
T1 sequence (P14423 22-146): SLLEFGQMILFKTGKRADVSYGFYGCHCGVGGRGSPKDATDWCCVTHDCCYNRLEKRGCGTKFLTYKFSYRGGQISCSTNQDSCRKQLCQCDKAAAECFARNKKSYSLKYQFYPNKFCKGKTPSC
As to the kind of experiment: PLA2 inhibitory activity (release of free fatty acid from [14C]phosphatidylethanolamine). Format: biochemical. The conditions noted are these: for IC50: 37° C., 20 minutes, pH 7.4; for PLA2 inhibitory effect (in words): statement in words. Here is the method: The amount of Cinatrin (μg/ml) effective for inhibiting 50% of PLA2 activity (IC50) was determined.
PLA2 inhibitory activities of Cinatrin and its derivatives were determined according to the following procedure.
PLA2 released from thrombin-stimulated rat platelets was prepared by immuno-affinity chromatography using antibody MD 7.1-coupled Sepharose (Murakami et. al, J. Biochem 104: 884-888, 1988). The standard assay conditions included, 250 μl of Tris-HCl buffer (100 mM, pH 7.4), CaCl2 (3 mM), 40 μM [^14 C]phosphatidylethanolamine and the enzyme. The reaction was started by the addition of the enzyme solution. Following incubation at 37° C. for 20 minutes, the reaction was terminated by addition of 1.25 ml of Dole's reagent (Dole, V. P. & H, Meinerts, J. Biol. Chem. 235: 2595-2599, 1960). Then released free fatty acid was extracted, and counted in Liquiflour (Du Pont-New England Nuclear) to determine the release of the radioactivity. Inhibition activity is expressed as percent of enzyme control.

[3] abbreviates: Table 5, lactone, read-out: PLA2 Inhibitory Activity, IC50, lactone (converted).
[4] abbreviates: Table 5, seco acid (Na), read-out: PLA2 Inhibitory Activity, IC50, seco acid (Na) (converted).
Setting [5] is: Table 5, methyl ester, read-out: PLA2 Inhibitory Activity, IC50, methyl ester (converted).

As for `CCCCCCCCCCCC(O)C1C(=O)OC(C(=O)O)C1(O)C(=O)O` (centres unmarked) [Cinatrin C2, 3-hydroxy-4-(1-hydroxydodecyl)-5-oxo-tetrahydrofuran-2,3-dicarboxylic acid], the “Solubility in organic solvents” value in series [1] is given as “soluble”. Moreover, the IC50 in series [2] (setting [3]) was 801 µM.

Turning to `CCCCCCCCCCCC(O)C(C(=O)O)C(O)(C(=O)O)C(O)C(=O)O` (centres unmarked) [Cinatrin C2 seco acid (Na salt)], the IC50 in series [2] (setting [4]) was 44.6 µM.

`CCCCCCCCCCC(O)CC(O)(C(=O)O)C(O)(C(=O)O)C(O)C(=O)O` (centres unmarked) [Cinatrin B seco acid (Na salt)]: in series [2] (setting [4]), the IC50 is 75.7 µM.

As to `CCCCCCCCCCCCC1(O)C(=O)OC(C(=O)OC)C1(O)C(=O)OC` (centres unmarked) [Cinatrin C3 methyl ester], the IC50 in series [2] (setting [5]) was 133 µM.

As for `CCCCCCCCCCCC(O)C1C(=O)OC(C(=O)OC)C1(O)C(=O)OC` (centres unmarked) [Cinatrin C2 methyl ester], in series [2] (setting [5]), the IC50 was 745 µM.

Regarding `C=CCCCCCCCCC(O)CC(O)(C(=O)O)C(O)(C(=O)O)C(O)C(=O)O` (centres unmarked) [Cinatrin A seco acid (Na salt)], in series [2] (setting [4]), the IC50 is 138 µM.

Take `C=CCCCCCCCCC1CC2(OC(=O)C(O)C2(O)C(=O)O)C(=O)O1` (centres unmarked) [Cinatrin A, 8-(dec-9-ene-1-yl)-3,4-dihydroxy-2,6-dioxo-1,7-dioxaspiro [5,5]-nonane-4-carboxylic acid]: in series [1], the “Solubility in organic solvents” value was “soluble” and the Solubility in water entry is reported as “soluble”. Moreover, in series [2] (setting [3]), the IC50 is 316 µM.

For `C=CCCCCCCCCC1CC2(OC(=O)C(O)C2(O)C(=O)OC)C(=O)O1` (centres unmarked) [Cinatrin A methyl ester], the IC50 in series [2] (setting [5]) is 216 µM.

Consider `CCCCCCCCCCC1CC2(OC(=O)C(O)C2(O)C(=O)O)C(=O)O1` (centres unmarked) [Cinatrin B, 8-(decane-1-yl)-3,4-dihydroxy-2,6-dioxo-1,7-dioxaspiro[5,5]-nonane-4-carboxylic acid], for which the “Solubility in organic solvents” value in series [1] was “soluble”. Besides, the IC50 in series [2] (setting [3]) is 147 µM. The “PLA2 inhibitory effect (in words)” value in series [2] is given as “particularly effective”.

`CCCCCCCCCCCCC1(C(=O)O)OC(=O)C(O)C1(O)C(=O)O` (centres unmarked) [Cinatrin C1, 2-dodecyl-3,4-dihydroxy-5-oxo-tetrahydrofuran-2,3-dicarboxylic acid]: in series [1], the “Solubility in organic solvents” value is “soluble” and the Solubility in water entry is “slightly soluble”. Besides, the IC50 in series [2] (Table 1, lactone form, read-out: IC50, lactone form (Inhibitory Effect on PLA2 from Rat Platelet)) is more than 801 µM. Also, the IC50 in series [2] (setting [3]) was more than 801 µM. The “Change of PLA2 inhibitory activity on conversion of lactone into ester or seco acid form (in words)” value in series [2] (ester or seco acid form versus lactone form) is on record as “becomes more active when it is converted into an ester or seco acid form”. Besides, the “PLA2 inhibitory effect (in words)” value in series [2] is listed as “moderately active in its lactone form”.

On to `CCCCCCCCCCCCC1(C(=O)OC)OC(=O)C(O)C1(O)C(=O)OC` (centres unmarked) [Cinatrin C1 methyl ester], for which the IC50 in series [2] (setting [5]) was 142 µM.

As to `CCCCCCCCCCC1CC2(OC(=O)C(O)C2(O)C(=O)OC)C(=O)O1` (centres unmarked) [Cinatrin B methyl ester], the IC50 in series [2] (setting [5]) is 215 µM.

`CCCCCCCCCCCCC(O)(C(=O)O)C(O)(C(=O)O)C(O)C(=O)O` (centres unmarked) [Cinatrin C1 seco acid (Na salt)]: in series [2] (setting [4]), the IC50 was 70.1 µM.

In the case of `CCCCCCCCCCCCC1(O)C(=O)OC(C(=O)O)C1(O)C(=O)O` (centres unmarked) [Cinatrin C3, 4-dodecyl-3,4-dihydroxy-5-oxo-tetrahydrofuran-2,3-dicarboxylic acid], in series [1], the “Solubility in organic solvents” value is recorded as “soluble”. Besides, the IC50 in series [2] (setting [3]) is 78.8 µM. For the same compound, in series [2], the “PLA2 inhibitory effect (in words)” value is reported as “particularly effective”.

For the origin of these results see patent US5120647A, “Phospholipase A2 inhibitor” (Shionogi & Co., Ltd., priority 1989, dated 1992).
